From patent US20240018119A1, “CARBOXAMIDE DERIVATIVE AND PHARMACEUTICAL COMPOSITION COMPRISING SAME AS ACTIVE INGREDIENT FOR PREVENTING OR TREATING MENTAL ILLNESS” (DAEGU-GYEONGBUK MEDICAL INNOVATION FOUNDATION, priority 2020, published 2024)

Columns and labels:
Assay type in all cases: cell-based
[1] = target: T1, serotonin transporter (Homo sapiens, UniProt P31645); assay: Serotonin reuptake inhibition in transporter-transfected HEK-293 cells ([3H]-5-HT); conditions: for Triple reuptake inhibition (Ratio %) SERT: compound 1 μM, [3H]-5-HT, relative to control without compound (100%), lower = more inhibition; for IC50: concentration at which Ratio % is 50%, 6 concentrations 1 nM to 1 μM, read-out: Triple reuptake inhibition (IC50, μM) SERT
T1 construct: expressed in transfected cells; host or cells: HEK-293
Method: (§1) To evaluate the reuptake inhibitory effect on dopamine, the dopamine transporter cDNA was transfected using the HEK-293 cell line, and then sub-seeded in a 24 well plate the next day. After removing the medium, each compound of the Examples or Comparative Examples diluted to 1 μM in uptake buffer was added to a concentration of 200 μl/well and cultured at 37° C. for 15 minutes. 100 μl of uptake buffer containing 20-30 nM [3H]-DA was added and cultured at 37° C. for 5 minutes. The reaction solution was quickly removed and washed three times with 1 ml ice-cold uptake buffer. After dissolving the resultant in 1% SDS (0.5 ml), the degree of binding of radioisotope-labeled dopamine to the transporter was measured.
(§2) For norepinephrine (NE) and serotonin (5-HT), the degree of binding of radioisotope-labeled norepinephrine or serotonin to the transporter was measured in the same manner as above, except that cells transfected with NE or 5-HT transporter cDNA were used and [3H]-NE or [3H]-5-HT was used as a substrate.
(§3) In addition, when evaluating the reuptake inhibitory effect on dopamine, norepinephrine, and serotonin, the same method was performed without treating each compound of the Examples or Comparative Examples as a control, the degree of binding of radioisotope-labeled dopamine, norepinephrine, and serotonin to the transporter was measured, and by using this as a standard (100%), the triple reuptake inhibitory effect was evaluated as a relative ratio (Ratio %). That is, in the control group, the binding of dopamine, norepinephrine, and serotonin to transporters is not inhibited, but when each compound of the Examples is treated and thus the binding is inhibited, the Patio % value decreases.
In addition, in the case of the compound of Comparative Example 1, IC50 was obtained by the same method as the Example Compounds.

[2] = target: T2, norepinephrine transporter (Homo sapiens, UniProt P23975); assay: Norepinephrine reuptake inhibition in transporter-transfected HEK-293 cells ([3H]-NE); conditions: for Triple reuptake inhibition (Ratio %) NET: compound 1 μM, [3H]-NE, relative to control without compound (100%), lower = more inhibition; for IC50: concentration at which Ratio % is 50%, 6 concentrations 1 nM to 1 μM, read-out: Triple reuptake inhibition (IC50, μM) NET
T2 construct: expressed in transfected cells; host or cells: HEK-293
Method: as §1, §2, §3
(§4) Meanwhile, the Patio % values were compared, and in the case of the compounds of Examples 6, 9, 10, 19, 20, 22, 24, 28, 30, 31, 32, 33, 35, 41, 42, 48, 49, 51, 55, 56, 59, 61, 63, 64, 65, 66, 74 and 76 with excellent reuptake inhibitory effects on dopamine, norepinephrine and serotonin, the concentration at which the Ratio % is 50% was calculated using a total of 6 concentrations (1 nM, 5 nM, 10 nM, 50 nM, 100 nM, and 1 μM) and expressed as IC50. In addition, in the case of the compound of Comparative Example 1, IC50 was obtained by the same method as the Example Compounds.

[3] = target: T3, dopamine transporter (Homo sapiens, UniProt Q01959); assay: Dopamine reuptake inhibition in transporter-transfected HEK-293 cells ([3H]-DA); conditions: for Triple reuptake inhibition (Ratio %) DAT: compound 1 μM, 20-30 nM [3H]-DA, relative to control without compound (100%), lower = more inhibition; for IC50: concentration at which Ratio % is 50%, 6 concentrations 1 nM to 1 μM, read-out: Triple reuptake inhibition (IC50, μM) DAT
T3 construct: expressed in transfected cells; host or cells: HEK-293
Method: as §1, §3, §4

T2 sequence (P23975 whole entry, species assumed): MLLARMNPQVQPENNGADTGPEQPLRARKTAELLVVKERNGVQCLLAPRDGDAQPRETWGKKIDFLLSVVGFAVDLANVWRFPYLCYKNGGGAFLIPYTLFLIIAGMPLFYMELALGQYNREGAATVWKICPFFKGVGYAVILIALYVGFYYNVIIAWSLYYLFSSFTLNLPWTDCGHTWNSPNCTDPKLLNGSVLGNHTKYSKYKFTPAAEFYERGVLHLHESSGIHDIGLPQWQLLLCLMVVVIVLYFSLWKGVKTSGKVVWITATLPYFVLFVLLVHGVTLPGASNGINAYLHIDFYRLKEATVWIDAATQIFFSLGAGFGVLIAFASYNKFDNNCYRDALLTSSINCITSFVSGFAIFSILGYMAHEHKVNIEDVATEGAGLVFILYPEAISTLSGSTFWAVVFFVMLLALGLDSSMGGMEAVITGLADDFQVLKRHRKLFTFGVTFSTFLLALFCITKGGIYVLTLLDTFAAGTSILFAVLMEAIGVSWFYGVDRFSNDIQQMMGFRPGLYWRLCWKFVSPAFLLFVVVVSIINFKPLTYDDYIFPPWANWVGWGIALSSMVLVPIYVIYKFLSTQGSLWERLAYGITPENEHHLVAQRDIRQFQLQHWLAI
T3 sequence (Q01959 whole entry): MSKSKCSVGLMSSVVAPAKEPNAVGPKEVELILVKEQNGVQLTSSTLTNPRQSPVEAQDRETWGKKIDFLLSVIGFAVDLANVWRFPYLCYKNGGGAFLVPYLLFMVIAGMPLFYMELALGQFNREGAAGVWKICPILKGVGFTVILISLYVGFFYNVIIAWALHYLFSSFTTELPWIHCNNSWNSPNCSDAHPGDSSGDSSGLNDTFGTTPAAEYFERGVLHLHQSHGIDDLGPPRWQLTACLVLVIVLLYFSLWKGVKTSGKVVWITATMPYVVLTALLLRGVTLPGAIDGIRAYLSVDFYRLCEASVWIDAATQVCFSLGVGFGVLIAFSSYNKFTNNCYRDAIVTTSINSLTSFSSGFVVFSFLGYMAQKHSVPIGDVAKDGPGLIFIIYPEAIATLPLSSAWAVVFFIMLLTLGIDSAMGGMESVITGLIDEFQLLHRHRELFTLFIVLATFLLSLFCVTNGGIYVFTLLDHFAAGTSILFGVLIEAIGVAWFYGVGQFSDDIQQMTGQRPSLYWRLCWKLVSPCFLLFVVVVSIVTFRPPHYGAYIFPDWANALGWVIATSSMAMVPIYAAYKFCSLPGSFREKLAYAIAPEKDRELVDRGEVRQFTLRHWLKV
T1 sequence (P31645 whole entry): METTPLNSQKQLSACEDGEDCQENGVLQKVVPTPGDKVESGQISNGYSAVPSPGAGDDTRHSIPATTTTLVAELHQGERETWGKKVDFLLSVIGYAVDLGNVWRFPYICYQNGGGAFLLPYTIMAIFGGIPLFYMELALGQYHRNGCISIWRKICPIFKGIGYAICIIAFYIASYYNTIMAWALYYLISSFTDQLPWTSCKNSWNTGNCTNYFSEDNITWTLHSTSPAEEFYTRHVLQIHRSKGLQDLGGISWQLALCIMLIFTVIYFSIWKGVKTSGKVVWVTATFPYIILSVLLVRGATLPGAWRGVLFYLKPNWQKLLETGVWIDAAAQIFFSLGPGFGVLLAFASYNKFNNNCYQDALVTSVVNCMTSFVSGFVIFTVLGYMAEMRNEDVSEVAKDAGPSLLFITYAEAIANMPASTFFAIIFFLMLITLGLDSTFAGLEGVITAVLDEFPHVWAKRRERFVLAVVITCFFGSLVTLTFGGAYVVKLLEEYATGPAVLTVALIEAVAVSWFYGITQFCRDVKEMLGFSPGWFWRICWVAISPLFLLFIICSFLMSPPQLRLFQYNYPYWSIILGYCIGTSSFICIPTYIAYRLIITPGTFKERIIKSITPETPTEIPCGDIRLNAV

SMILES	Triple reuptake inhibition (Ratio %) SERT [1]	Triple reuptake inhibition (Ratio %) NET [2]	Triple reuptake inhibition (Ratio %) DAT [3]	IC50 [1]	IC50 [3]	IC50 [2]
O=C(NCCN1CCN(Cc2ccc(F)c(F)c2)CC1)c1ccc2cc(Br)ccc2c1 [Example 7, 6-bromo-N-(2-(4-(3,4-difluorobenzyl)piperazin-1-yl)ethyl)-2-naphthamide]	103.19%	60.83%	82.42%	–	–	–
O=C(NCCN1CCN(Cc2ccc(Cl)c(Cl)c2)CC1)c1ccc(Cl)c(Cl)c1 [Example 11, 3,4-dichloro-N-(2-(4-(3,4-dichlorobenzyl)piperazin-1-yl)ethyl)benzamide]	63.40%	82.25%	75.29%	–	–	–
O=C(NCCN1CCN(Cc2ccc(Cl)c(Cl)c2)CC1)c1cc2ccccc2[nH]1 [Example 22, N-(2-(4-(3,4-dichlorobenzyl)piperazin-1-yl)ethyl)-1H-indol-2-carboxamide]	52.47%	91.21%	63.72%	> 10 µM	–	–
O=C(NCCN1CCN(Cc2ccccc2)CC1)c1cc2ccccc2[nH]1 [Example 25, N-(2-(4-benzylpiperazin-1-yl)ethyl)-1H-indol-2-carboxamide]	97.46%	76.45%	76.50%	–	–	–
O=C(NCCN1CCC(Cc2ccc(F)c(F)c2)CC1)c1ccc2cc(Br)ccc2c1 [Example 6, 6-bromo-N-(2-(4-(3,4-difluorobenzyl)piperidin-1-yl)ethyl)-2-naphthamide]	73.84%	34.16%	57.66%	14 µM	3.93 µM	–
O=C(NCCN1CCN(c2cccc(C(F)(F)F)c2)CC1)c1ccc2cc(Br)ccc2c1 [Example 2]	78.42%	120.40%	107.77%	–	–	–
O=C(NCCN1CCN(c2ccc(Cl)c(Cl)c2)CC1)c1ccc2cc(Br)ccc2c1 [Example 3, 6-bromo-N-(2-(4-(3,4-dichlorophenyl)piperazin-1-yl)ethyl)-2-naphthamide]	77.91%	110.56%	104.38%	–	–	–
O=C(NCCN1CCN(c2cccc(Cl)c2Cl)CC1)c1cc2ccccc2[nH]1 [Example 23, N-(2-(4-(2,3-dichlorophenyl)piperazin-1-yl)ethyl)-1H-indol-2-carboxamide]	85.13%	99.59%	70.42%	–	–	–
O=C(NCCN1CCN(Cc2ccc(F)c(F)c2)CC1)c1ccc(Cl)c(Cl)c1 [Example 16, 3,4-dichloro-N-(2-(4-(3,4-difluorobenzyl)piperazin-1-yl)ethyl)benzamide]	113.34%	82.44%	85.54%	–	–	–
O=C(NCCn1ccc(-c2ccc(F)cn2)n1)c1ccc2cc(Br)ccc2c1 [Example 8, 6-bromo-N-(2-(3-(5-fluoropyridin-2-yl)-1H-pyrazol-1-yl)ethyl)-2-naphthamide]	86.83%	95.78%	97.06%	–	–	–
O=C(NCCN1CCC(Cc2ccc(Cl)c(Cl)c2)CC1)c1ccc(Cl)c(Cl)c1 [Example 17, 3,4-dichloro-N-(2-(4-(3,4-dichlorobenzyl)piperidin-1-yl)ethyl)benzamide]	4.81%	88.67%	66.05%	–	–	–
O=C(NCCN1CCN(Cc2ccccc2)CC1)c1ccc(Cl)c(Cl)c1 [Example 15, N-(2-(4-benzylpiperazin-1-yl)ethyl)-3,4-dichlorobenzamide]	114.75%	72.94%	85.21%	–	–	–
CCCCOc1ccc2cc(C(=O)NCCN3CCC(Cc4ccccc4)CC3)[nH]c2c1 [Example 42, N-(2-(4-benzylpiperidin-1-yl)ethyl)-6-butoxy-1H-indol-2-carboxamide]	46.64%	44.53%	45.67%	0.68 µM	0.338 µM	0.171 µM
O=C(CCC(=O)N1CCC(Cc2ccccc2)CC1)Nc1cc2ccccc2[nH]1 [Example 77, 4-(4-benzylpiperidin-1-yl)-N-(1H-indol-2-yl)-4-oxobutanamide]	98.61%	91.05%	111.32%	–	–	–

Other lines, results leading:

Triple reuptake inhibition (Ratio %) SERT [1]	Triple reuptake inhibition (Ratio %) NET [2]	Triple reuptake inhibition (Ratio %) DAT [3]	IC50 [1]	IC50 [3]	IC50 [2]	SMILES
53.01%	57.47%	39.32%	3.01 µM	2.64 µM	2.48 µM	O=C(NCCN1CCC(Cc2ccccc2)CC1)c1nc2ccccc2s1 [Example 55, N-(2-(4-benzylpiperidin-1-yl)ethyl)benzo[d]thiazol-2-carboxamide]
92.65%	59.50%	35.13%	–	–	–	O=C(NCCN1CCC(Cc2ccccc2)CC1)c1cc2cc(C(F)(F)F)ccc2[nH]1 [Example 40, N-(2-(4-benzylpiperidin-1-yl)ethyl)-5-(trifluoromethyl)-1H-indol-2-carboxamide]
88.39%	57.01%	33.58%	–	–	–	O=C(NCCN1CCC(Cc2ccccc2)CC1)c1c[nH]c2ccccc12 [Example 73, N-(2-(4-benzylpiperidin-1-yl)ethyl)-1H-indol-3-carboxamide]
5.27%	9.75%	2.88%	0.123 µM	0.028 µM	0.398 µM	COc1cc2cc(C(=O)NCCN3CCC(Cc4ccc(Cl)c(Cl)c4)CC3)[nH]c2cc1OC [Example 48]
42.91%	110.55%	77.49%	–	–	–	O=C(NCCN1CCC(Cc2ccccc2)CC1)c1cc2cc(OCc3ccccc3)ccc2[nH]1 [Example 46, 5-(benzyloxy)-N-(2-(4-benzylpiperidin-1-yl)ethyl)-1H-indol-2-carboxamide]
100.83%	93.21%	108.32%	–	–	–	O=C(NCC(=O)N1CCC(Cc2ccccc2)CC1)c1cc2ccccc2[nH]1 [Example 50, N-(2-(4-benzylpiperidin-1-yl)-2-oxoethyl)-1H-indol-2-carboxamide]
76.27%	63.99%	40.9%	–	–	–	O=C(NCCN1CCC(Cc2ccccc2)CC1)c1cc2c(Cl)cc(Cl)cc2[nH]1 [Example 39, N-(2-(4-benzylpiperidin-1-yl)ethyl)-4,6-dichloro-1H-indol-2-carboxamide]
48.73%	65.51%	25.55%	1.33 µM	0.331 µM	1.7 µM	COc1ccc2[nH]c(C(=O)NCCN3CCC(Cc4ccccc4)CC3)cc2c1 [Example 33, N-(2-(4-benzylpiperidin-1-yl)ethyl)-5-methoxy-1H-indol-2-carboxamide]
62.21%	73.75%	32.78%	2.28 µM	0.97 µM	3.17 µM	O=C(NCCN1CCC(Cc2ccccc2)CC1)c1nc2ccccc2[nH]1 [Example 61, N-(2-(4-benzylpiperidin-1-yl)ethyl)-1H-benzo[d]imidazol-2-carboxamide]
